The data set in a line: Solubility of paclitaxel in the hydrophilic liquid core solvents. As to conditions: solvents such as DMSO and DENA.

Regarding `CC(=O)O[C@H]1C(=O)[C@@]2(C)[C@H]([C@H](OC(=O)c3ccccc3)[C@]3(O)C[C@H](OC(=O)[C@H](O)[C@@H](NC(=O)c4ccccc4)c4ccccc4)C(C)=C1C3(C)C)[C@]1(OC(C)=O)CO[C@@H]1C[C@@H]2O` [paclitaxel], the “concentration at which the drug may be dissolved in liquid core” value is given as 10-60 weight percent.

The record behind these values is patent US20070031504A1, “Microdevices comprising nanocapsules for controlled delivery of drugs and method of manufacturing same” (MIV Therapeutics Inc., priority 2005, published 2007).
